Laboratory results: ChEMBL document CHEMBL3132854, “Synthesis and anticancer activity evaluation of resveratrolchalcone conjugates” (2014)

Columns and labels:
CCRF-CEM = assay: Growth inhibition of human CCRF-CEM cells assessed as cell growth at 10 uM by sulforhodamine B assay relative to control; format: functional; settings: values are per cent of control
PC-3 = assay: Growth inhibition of human PC3 cells assessed as cell growth at 10 uM by sulforhodamine B assay relative to control; values are per cent of control
[1] = Growth inhibition of human UO31 cells assessed as cell growth at 10 uM by sulforhodamine B assay relative to control; values are per cent of control; settings: UO-31
ACHN = assay: Growth inhibition of human ACHN cells assessed as cell growth at 10 uM by sulforhodamine B assay relative to control; values are per cent of control
A498 = assay: Growth inhibition of human A498 cells assessed as cell growth at 10 uM by sulforhodamine B assay relative to control; values are per cent of control
U-251 = assay: Growth inhibition of human U251 cells assessed as cell growth at 10 uM by sulforhodamine B assay relative to control; values are per cent of control
KM12 = assay: Growth inhibition of human KM12 cells assessed as cell growth at 10 uM by sulforhodamine B assay relative to control; values are per cent of control
K562 = assay: Growth inhibition of human K562 cells assessed as cell growth at 10 uM by sulforhodamine B assay relative to control; values are per cent of control
BT-549 = assay: Growth inhibition of human BT549 cells assessed as cell growth at 10 uM by sulforhodamine B assay relative to control; values are per cent of control
DU-145 = assay: Growth inhibition of human DU145 cells assessed as cell growth at 10 uM by sulforhodamine B assay relative to control; values are per cent of control
SNB-75 = assay: Growth inhibition of human SNB75 cells assessed as cell growth at 10 uM by sulforhodamine B assay relative to control; values are per cent of control
SF-268 = assay: Growth inhibition of human SF268 cells assessed as cell growth at 10 uM by sulforhodamine B assay relative to control; values are per cent of control
HOP-62 = assay: Growth inhibition of human HOP62 cells assessed as cell growth at 10 uM by sulforhodamine B assay relative to control; values are per cent of control
[2] = Growth inhibition of human RXF393 cells assessed as cell growth at 10 uM by sulforhodamine B assay relative to control; values are per cent of control; settings: RXF 393
CAKI-1 = assay: Growth inhibition of human CAKI-1 cells assessed as cell growth at 10 uM by sulforhodamine B assay relative to control; values are per cent of control
[3] = Growth inhibition of human OVCAR5 cells assessed as cell growth at 10 uM by sulforhodamine B assay relative to control; values are per cent of control; settings: OVCAR-5
OVCAR-3 = assay: Growth inhibition of human OVCAR3 cells assessed as cell growth at 10 uM by sulforhodamine B assay relative to control; values are per cent of control
UACC-62 = assay: Growth inhibition of human UACC62 cells assessed as cell growth at 10 uM by sulforhodamine B assay relative to control; values are per cent of control
[4] = Growth inhibition of human UACC257 cells assessed as cell growth at 10 uM by sulforhodamine B assay relative to control; values are per cent of control; settings: UACC-257
NCI-H460 = assay: Growth inhibition of human NCI-H460 cells assessed as cell growth at 10 uM by sulforhodamine B assay relative to control; values are per cent of control
NCI-H226 = assay: Growth inhibition of human NCI-H226 cells assessed as cell growth at 10 uM by sulforhodamine B assay relative to control; values are per cent of control
RPMI-8226 = assay: Growth inhibition of human RPMI8226 cells assessed as cell growth at 10 uM by sulforhodamine B assay relative to control; values are per cent of control
SK-MEL-28 = assay: Growth inhibition of human SK-MEL-28 cells assessed as cell growth at 10 uM by sulforhodamine B assay relative to control; values are per cent of control
A549 = assay: Growth inhibition of human A549/ATCC cells assessed as cell growth at 10 uM by sulforhodamine B assay relative to control; values are per cent of control
MDA-MB-231 = assay: Growth inhibition of human MDA-MB-231 cells assessed as cell growth at 10 uM by sulforhodamine B assay relative to control; values are per cent of control
IGROV-1 = assay: Growth inhibition of human IGROV1 cells assessed as cell growth at 10 uM by sulforhodamine B assay relative to control; values are per cent of control

SMILES | growth, % of control at 10 µM (CCRF-CEM) [%] | growth, % of control at 10 µM (PC-3) [%] | growth, % of control at 10 µM [1] [%] | growth, % of control at 10 µM (ACHN) [%] | growth, % of control at 10 µM (A498) [%] | growth, % of control at 10 µM (U-251) [%] | growth, % of control at 10 µM (KM12) [%] | growth, % of control at 10 µM (K562) [%] | growth, % of control at 10 µM (BT-549) [%] | growth, % of control at 10 µM (DU-145) [%] | growth, % of control at 10 µM (SNB-75) [%] | growth, % of control at 10 µM (SF-268) [%] | growth, % of control at 10 µM (HOP-62) [%] | growth, % of control at 10 µM [2] [%] | growth, % of control at 10 µM (CAKI-1) [%] | growth, % of control at 10 µM [3] [%] | growth, % of control at 10 µM (OVCAR-3) [%] | growth, % of control at 10 µM (UACC-62) [%] | growth, % of control at 10 µM [4] [%] | growth, % of control at 10 µM (NCI-H460) [%] | also measured
COc1ccc(/C=C/c2ccc(/C=C/C(=O)c3ccc(Cl)cc3)cc2)cc1 | 97.2 | 108 | 80.7 | 110 | 76 | 99.7 | 96.3 | 87.3 | 93.4 | 103 | 100 | 96.5 | 105 | 115 | 92.4 | 102 | 101 | 105 | 101 | 101 | growth, % of control at 10 µM (NCI-H226): 112%; growth, % of control at 10 µM (RPMI-8226): 99.2%; growth, % of control at 10 µM (SK-MEL-28): 112%; growth, % of control at 10 µM (A549): 91.8%; growth, % of control at 10 µM (MDA-MB-231): 117%
COc1ccc(C(=O)/C=C/c2ccc(/C=C/c3ccc(Cl)cc3)cc2)cc1 | 97.7 | 98.7 | 102 | 94.6 | 78.1 | 101 | 100 | 87.8 | 103 | 108 | 97.2 | 96.5 | 101 | 116 | 93.9 | 96.6 | 101 | 92.7 | 100 | 102 | growth, % of control at 10 µM (IGROV-1): 95.7%; growth, % of control at 10 µM (NCI-H226): 101%; growth, % of control at 10 µM (RPMI-8226): 102%; growth, % of control at 10 µM (SK-MEL-28): 104%; growth, % of control at 10 µM (A549): 100%; growth, % of control at 10 µM (MDA-MB-231): 103%
